Measured values reported in ChEMBL document CHEMBL3046070, “New N-arylamino biquinoline derivatives: microwave-assisted synthesis and their antimicrobial activities” (2013).
Converted amounts (≈) assume the structure as drawn.

Columns and labels:
Format in all cases: functional
Streptococcus pneumoniae = test: Antibacterial activity against Streptococcus pneumoniae MTCC 1936 assessed as growth inhibition after overnight incubation by NCCLS broth microdilution method
Candida albicans = test: Antifungal activity against Candida albicans MTCC 227 assessed as growth inhibition after overnight incubation by NCCLS broth microdilution method
Aspergillus fumigatus = test: Antifungal activity against Aspergillus fumigatus MTCC 3008 assessed as growth inhibition after overnight incubation by NCCLS broth microdilution method
Escherichia coli = test: Antibacterial activity against Escherichia coli MTCC 443 assessed as growth inhibition after overnight incubation by NCCLS broth microdilution method
Vibrio cholerae = test: Antibacterial activity against Vibrio cholerae MTCC 3906 assessed as growth inhibition after overnight incubation by NCCLS broth microdilution method
Salmonella typhi = test: Antibacterial activity against Salmonella enterica subsp. enterica serovar Typhi MTCC 98 assessed as growth inhibition after overnight incubation by NCCLS broth microdilution method
Bacillus subtilis = test: Antibacterial activity against Bacillus subtilis MTCC 441 assessed as growth inhibition after overnight incubation by NCCLS broth microdilution method
Clostridium tetani = test: Antibacterial activity against Clostridium tetani MTCC 449 assessed as growth inhibition after overnight incubation by NCCLS broth microdilution method

Row | Molecule | MIC (Streptococcus pneumoniae) [µg/mL] | MIC (Candida albicans) [µg/mL] | MIC (Aspergillus fumigatus) [µg/mL] | MIC (Escherichia coli) [µg/mL] | MIC (Vibrio cholerae) [µg/mL] | MIC (Salmonella typhi) [µg/mL] | MIC (Bacillus subtilis) [µg/mL] | MIC (Clostridium tetani) [µg/mL]
1 | CCOC(=O)C1=C(N)N(Nc2ccccc2)C2=C(C(=O)CC(C)(C)C2)C1c1cc2ccccc2nc1Cl (centres undefined) | 200 (≈ 387 µM) | 250 (≈ 484 µM) | > 1000 | 50 (≈ 96.7 µM) | 500 (≈ 967 µM) | 200 (≈ 387 µM) | 200 (≈ 387 µM) | 500 (≈ 967 µM)
2 | CCOC(=O)C1=C(N)N(Nc2ccc(Cl)cc2)C2=C(C(=O)CC(C)(C)C2)C1c1cc2cc(C)ccc2nc1Cl (centres undefined) | 500 (≈ 884 µM) | 500 (≈ 884 µM) | > 1000 | 62.5 (≈ 111 µM) | 250 (≈ 442 µM) | 200 (≈ 354 µM) | 500 (≈ 884 µM) | 200 (≈ 354 µM)
3 | COC1=CC(=O)C[C@@H](C)[C@]12Oc1c(Cl)c(OC)cc(OC)c1C2=O [GRISEOFULVIN] |  | 500 (≈ 1420 µM) | 100 (≈ 283 µM) |  |  |  |  | 
4 | O=C(O)c1cn(C2CC2)c2cc(N3CCNCC3)c(F)cc2c1=O [CIPROFLOXACIN] | 50 (≈ 151 µM) |  |  | 25 (≈ 75.4 µM) | 25 (≈ 75.4 µM) | 25 (≈ 75.4 µM) |  | 
5 | CC1(C)S[C@@H]2[C@H](NC(=O)[C@H](N)c3ccccc3)C(=O)N2[C@H]1C(=O)O [AMPICILLIN] | 100 (≈ 286 µM) |  |  | 100 (≈ 286 µM) | 100 (≈ 286 µM) | 100 (≈ 286 µM) | 250 (≈ 715 µM) | 250 (≈ 715 µM)
6 | CCOC(=O)C1=C(N)N(Nc2ccc(Br)cc2)C2=C(C(=O)CC(C)(C)C2)C1c1cc2cc(C)ccc2nc1Cl (centres undefined) | 250 (≈ 410 µM) | 500 (≈ 820 µM) | 1000 (≈ 1640 µM) | 500 (≈ 820 µM) | 500 (≈ 820 µM) | 500 (≈ 820 µM) | 100 (≈ 164 µM) | 500 (≈ 820 µM)
7 | CCOC(=O)C1=C(N)N(Nc2ccc(F)cc2)C2=C(C(=O)CC(C)(C)C2)C1c1cc2ccccc2nc1Cl (centres undefined) | 200 (≈ 374 µM) | 250 (≈ 467 µM) | 500 (≈ 935 µM) | 100 (≈ 187 µM) | 200 (≈ 374 µM) | 100 (≈ 187 µM) | 200 (≈ 374 µM) | 200 (≈ 374 µM)
8 | GENTAMICIN | 0.5 |  |  | 0.05 | 5 | 5 | 1 | 5
9 | CCOC(=O)C1=C(N)N(Nc2ccc(F)cc2)C2=C(C(=O)CC(C)(C)C2)C1c1cc2cc(C)ccc2nc1Cl (centres undefined) | 200 (≈ 364 µM) | 100 (≈ 182 µM) | > 1000 | 100 (≈ 182 µM) | 100 (≈ 182 µM) | 200 (≈ 364 µM) | 200 (≈ 364 µM) | 100 (≈ 182 µM)
10 | CCOC(=O)C1=C(N)N(Nc2ccccc2)C2=C(C(=O)CC(C)(C)C2)C1c1cc2cc(Cl)ccc2nc1Cl (centres undefined) | 100 (≈ 181 µM) | 1000 (≈ 1810 µM) | 250 (≈ 453 µM) | 125 (≈ 227 µM) | 100 (≈ 181 µM) | 250 (≈ 453 µM) | 200 (≈ 363 µM) | 200 (≈ 363 µM)
11 | CCOC(=O)C1=C(N)N(Nc2ccc(C)cc2)C2=C(C(=O)CC(C)(C)C2)C1c1cc2ccccc2nc1Cl (centres undefined) | 250 (≈ 471 µM) | > 1000 | > 1000 | 250 (≈ 471 µM) | 125 (≈ 235 µM) | 250 (≈ 471 µM) | 500 (≈ 942 µM) | 500 (≈ 942 µM)
12 | CCOC(=O)C1=C(N)N(Nc2ccc(C)cc2)C2=C(C(=O)CC(C)(C)C2)C1c1cc2cc(C)ccc2nc1Cl (centres undefined) | 250 (≈ 459 µM) | 1000 (≈ 1830 µM) | > 1000 | 250 (≈ 459 µM) | 500 (≈ 917 µM) | 500 (≈ 917 µM) | 250 (≈ 459 µM) | 500 (≈ 917 µM)
13 | NYSTATIN |  | 100 | 100 |  |  |  |  | 
14 | CCOC(=O)C1=C(N)N(Nc2ccc(Cl)cc2)C2=C(C(=O)CC(C)(C)C2)C1c1cc2ccccc2nc1Cl (centres undefined) | 200 (≈ 363 µM) | 1000 (≈ 1810 µM) | 250 (≈ 453 µM) | 200 (≈ 363 µM) | 250 (≈ 453 µM) | 250 (≈ 453 µM) | 200 (≈ 363 µM) | 125 (≈ 227 µM)
15 | CCOC(=O)C1=C(N)N(Nc2ccc(OC)cc2)C2=C(C(=O)CC(C)(C)C2)C1c1cc2cc(Cl)ccc2nc1Cl (centres undefined) | 500 (≈ 860 µM) | 1000 (≈ 1720 µM) | > 1000 | 250 (≈ 430 µM) | 250 (≈ 430 µM) | 250 (≈ 430 µM) | 500 (≈ 860 µM) | 250 (≈ 430 µM)
16 | CCOC(=O)C1=C(N)N(Nc2ccc(Br)cc2)C2=C(C(=O)CC(C)(C)C2)C1c1cc2cc(Cl)ccc2nc1Cl (centres undefined) | 200 (≈ 317 µM) | 500 (≈ 793 µM) | 1000 (≈ 1590 µM) | 200 (≈ 317 µM) | 250 (≈ 397 µM) | 100 (≈ 159 µM) | 200 (≈ 317 µM) | 250 (≈ 397 µM)
17 | O=C(N[C@H](CO)[C@H](O)c1ccc([N+](=O)[O-])cc1)C(Cl)Cl [CHLORAMPHENICOL] | 50 (≈ 155 µM) |  |  | 50 (≈ 155 µM) | 50 (≈ 155 µM) | 50 (≈ 155 µM) | 50 (≈ 155 µM) | 50 (≈ 155 µM)
18 | CCOC(=O)C1=C(N)N(Nc2ccc(Br)cc2)C2=C(C(=O)CC(C)(C)C2)C1c1cc2cc(OC)ccc2nc1Cl (centres undefined) | 250 (≈ 399 µM) | > 1000 | 500 (≈ 799 µM) | 200 (≈ 320 µM) | 200 (≈ 320 µM) | 200 (≈ 320 µM) | 250 (≈ 399 µM) | 200 (≈ 320 µM)
19 | CCOC(=O)C1=C(N)N(Nc2ccc(F)cc2)C2=C(C(=O)CC(C)(C)C2)C1c1cc2cc(OC)ccc2nc1Cl (centres undefined) | 250 (≈ 442 µM) | 1000 (≈ 1770 µM) | > 1000 | 125 (≈ 221 µM) | 250 (≈ 442 µM) | 200 (≈ 354 µM) | 200 (≈ 354 µM) | 250 (≈ 442 µM)
20 | CCOC(=O)C1=C(N)N(Nc2ccc(C)cc2)C2=C(C(=O)CC(C)(C)C2)C1c1cc2cc(Cl)ccc2nc1Cl (centres undefined) | 100 (≈ 177 µM) | 250 (≈ 442 µM) | > 1000 | 500 (≈ 884 µM) | 500 (≈ 884 µM) | 500 (≈ 884 µM) | 250 (≈ 442 µM) | 500 (≈ 884 µM)
21 | CCOC(=O)C1=C(N)N(Nc2ccc(OC)cc2)C2=C(C(=O)CC(C)(C)C2)C1c1cc2cc(C)ccc2nc1Cl (centres undefined) | 125 (≈ 223 µM) | 250 (≈ 446 µM) | 500 (≈ 891 µM) | 250 (≈ 446 µM) | 250 (≈ 446 µM) | 100 (≈ 178 µM) | 250 (≈ 446 µM) | 250 (≈ 446 µM)
22 | CCOC(=O)C1=C(N)N(Nc2ccccc2)C2=C(C(=O)CC(C)(C)C2)C1c1cc2cc(C)ccc2nc1Cl (centres undefined) | 250 (≈ 471 µM) | 500 (≈ 942 µM) | > 1000 | 100 (≈ 188 µM) | 100 (≈ 188 µM) | 250 (≈ 471 µM) | 500 (≈ 942 µM) | 500 (≈ 942 µM)
23 | CCn1cc(C(=O)O)c(=O)c2cc(F)c(N3CCNCC3)cc21 [NORFLOXACIN] | 10 (≈ 31.3 µM) |  |  | 10 (≈ 31.3 µM) | 10 (≈ 31.3 µM) | 10 (≈ 31.3 µM) | 100 (≈ 313 µM) | 50 (≈ 157 µM)
24 | CCOC(=O)C1=C(N)N(Nc2ccc(Cl)cc2)C2=C(C(=O)CC(C)(C)C2)C1c1cc2cc(Cl)ccc2nc1Cl (centres undefined) | 500 (≈ 853 µM) | 1000 (≈ 1710 µM) | 500 (≈ 853 µM) | 250 (≈ 427 µM) | 250 (≈ 427 µM) | 250 (≈ 427 µM) | 500 (≈ 853 µM) | 250 (≈ 427 µM)
25 | CCOC(=O)C1=C(N)N(Nc2ccccc2)C2=C(C(=O)CC(C)(C)C2)C1c1cc2cc(OC)ccc2nc1Cl (centres undefined) | 200 (≈ 366 µM) | > 1000 | > 1000 | 250 (≈ 457 µM) | 250 (≈ 457 µM) | 250 (≈ 457 µM) | 200 (≈ 366 µM) | 250 (≈ 457 µM)
26 | CCOC(=O)C1=C(N)N(Nc2ccc(OC)cc2)C2=C(C(=O)CC(C)(C)C2)C1c1cc2ccccc2nc1Cl (centres undefined) | 200 (≈ 366 µM) | 250 (≈ 457 µM) | 500 (≈ 914 µM) | 50 (≈ 91.4 µM) | 200 (≈ 366 µM) | 200 (≈ 366 µM) | 250 (≈ 457 µM) | 100 (≈ 183 µM)
